What was measured:
[1] = mice models of obesity; cited from earlier work
IKKε = IKKε (Homo sapiens (Human), UniProt Q14164); assay: Lanthascreen TR-FRET kinase inhibition assay, IKKε; assay type: biochemical; conditions: 20 μM ATP (apparent Km), 2 nM kinase, 1 h
In short: (§1)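 TR-FRET: terbium phosphospecific antibody detects phosphorylation of 400 nM fluorescein-IkBα peptide, 20 μM ATP, 20 °C, HEPES pH 7.5 with 3% DMSO. IKKε at 2 nM, 1 h reaction; TBK1 at 8 nM, 2.5 h reaction; started by kinase addition.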

TBK1 = TBK1 (Homo sapiens (Human), UniProt Q9UHD2); assay: Lanthascreen TR-FRET kinase inhibition assay, TBK1; assay type: biochemical; conditions: 20 μM ATP (apparent Km), 8 nM kinase, 2.5 h
In short: as §1

Chain of TBK1 (Q9UHD2 whole entry): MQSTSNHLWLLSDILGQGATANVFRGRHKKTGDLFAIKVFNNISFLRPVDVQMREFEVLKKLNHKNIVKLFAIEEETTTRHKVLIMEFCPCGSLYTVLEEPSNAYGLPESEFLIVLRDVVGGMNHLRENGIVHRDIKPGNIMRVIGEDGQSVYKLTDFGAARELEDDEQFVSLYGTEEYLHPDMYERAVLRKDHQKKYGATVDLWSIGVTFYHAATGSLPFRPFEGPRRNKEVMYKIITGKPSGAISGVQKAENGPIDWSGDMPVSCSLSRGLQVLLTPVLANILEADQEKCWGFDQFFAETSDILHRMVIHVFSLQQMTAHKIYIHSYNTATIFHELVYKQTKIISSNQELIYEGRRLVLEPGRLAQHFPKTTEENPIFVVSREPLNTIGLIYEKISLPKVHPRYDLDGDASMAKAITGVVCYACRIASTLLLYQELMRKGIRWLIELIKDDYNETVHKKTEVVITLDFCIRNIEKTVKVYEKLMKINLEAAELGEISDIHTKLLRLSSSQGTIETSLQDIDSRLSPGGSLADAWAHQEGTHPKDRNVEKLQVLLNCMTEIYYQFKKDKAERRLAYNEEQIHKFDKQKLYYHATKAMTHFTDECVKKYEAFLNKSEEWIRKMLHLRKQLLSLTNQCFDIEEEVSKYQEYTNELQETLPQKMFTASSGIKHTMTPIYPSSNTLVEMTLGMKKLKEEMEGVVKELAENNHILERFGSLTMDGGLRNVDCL
Chain of IKKε (Q14164 whole entry): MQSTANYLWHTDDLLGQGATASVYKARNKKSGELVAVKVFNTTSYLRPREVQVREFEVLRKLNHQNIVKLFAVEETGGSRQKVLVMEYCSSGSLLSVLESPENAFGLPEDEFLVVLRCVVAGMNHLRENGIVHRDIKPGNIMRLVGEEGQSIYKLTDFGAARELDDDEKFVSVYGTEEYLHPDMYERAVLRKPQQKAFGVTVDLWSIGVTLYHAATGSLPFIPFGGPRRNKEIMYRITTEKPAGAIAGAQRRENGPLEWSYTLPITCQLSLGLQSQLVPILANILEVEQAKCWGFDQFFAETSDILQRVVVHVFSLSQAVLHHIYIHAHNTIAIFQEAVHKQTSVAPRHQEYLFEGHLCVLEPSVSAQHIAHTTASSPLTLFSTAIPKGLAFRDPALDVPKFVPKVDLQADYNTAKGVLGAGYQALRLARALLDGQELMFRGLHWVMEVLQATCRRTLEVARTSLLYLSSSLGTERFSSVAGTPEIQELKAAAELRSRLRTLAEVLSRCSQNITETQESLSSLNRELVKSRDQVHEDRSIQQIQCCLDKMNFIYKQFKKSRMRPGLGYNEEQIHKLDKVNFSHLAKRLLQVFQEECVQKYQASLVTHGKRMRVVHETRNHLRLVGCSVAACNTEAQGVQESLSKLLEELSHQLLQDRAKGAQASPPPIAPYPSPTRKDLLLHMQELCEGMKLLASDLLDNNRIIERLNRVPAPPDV

Row | Compound | blood glucose levels [1] | weight gain [1] | IC50 (IKKε) [nM] | IC50 (TBK1) [nM]
1 | CC(C)c1ccc2oc3nc(N)c(C(=O)O)cc3c(=O)c2c1 [Amlexanox] | lower blood glucose levels | reduce weight gain |  | 
2 | CN1CCC(NC(=O)c2cccc(Nc3nccc(-c4cnc(N[C@@H]5CCOC5)c(C#N)c4)n3)c2)CC1 [DMX-115, 3-(4-{5-Cyano-6-[(R)-(tetrahydro-furan-3-yl)amino]-pyridin-3-yl}-pyrimidin-2-ylamino)-N-(1-methyl-piperidin-4-yl)-benzamide] |  |  | < 1000 | < 1000
3 | COC1CN(Cc2ccc(Nc3nccc(-c4cnc(N5CC[C@H](F)C5)c(C#N)c4)n3)cn2)C1 [DMX-83, 2-((S)-3-Fluoro-pyrrolidin-1-yl)-5-{2-[6-(3-methoxy-azetidin-1-ylmethyl)-pyridin-3-ylamino]-pyrimidin-4-yl}-nicotinonitrile] |  |  | < 30 | < 30
4 | N#Cc1cc(-c2ccnc(Nc3cnc4c(c3)CNC4)n2)cnc1N1CC[C@H](F)C1 [DMX-109, 5-[2-(6,7-Dihydro-5H-pyrrolo[3,4-b]pyridin-3-ylamino)-pyrimidin-4-yl]-2-((S)-3-fluoro-pyrrolidin-1-yl)-nicotinonitrile] |  |  | < 30 | < 100
5 | N#Cc1cc(-c2ccnc(Nc3ccc(NC(=O)CN4CC[C@H](F)C4)nc3)n2)cnc1N1CC[C@H](F)C1 [DMX-69, N-(5-{4-[5-Cyano-6-((S)-3-fluoro-pyrrolidin-1-yl)-pyridin-3-yl]-pyrimidin-2-ylamino}-pyridin-2-yl)-2-((S)-3-fluoro-pyrrolidin-1-yl)-acetamide] |  |  | < 30 | < 100
6 | Cc1nccn1Cc1ccc(Nc2nccc(-c3ccc(N4CC[C@H](F)C4)c(C#N)n3)n2)cn1 [DMX-151, 3-((S)-3-Fluoro-pyrrolidin-1-yl)-6-{2-[6-(2-methyl-imidazol-1-ylmethyl)-pyridin-3-ylamino]-pyrimidin-4-yl}-pyridine-2-carbonitrile] |  |  | < 30 | < 30
7 | N#Cc1nc(-c2ccnc(Nc3ccc(OCCN4CC[C@H](F)C4)nc3)n2)ccc1N1CC[C@H](O)C1 [DMX-148, 6-(2-{6-[2-((S)-3-Fluoro-pyrrolidin-1-yl)-ethoxy]-pyridin-3-ylamino}-pyrimidin-4-yl)-3-((S)-3-hydroxy-pyrrolidin-1-yl)-pyridine-2-carbonitile] |  |  | < 100 | < 100
8 | C[C@@H]1CN(c2ccc(Nc3nccc(-c4cnc(N5CC[C@H](O)C5)c(C#N)c4)n3)cn2)CCN1 [DMX-26, 2-((S)-3-Hydroxy-pyrrolidin-1-yl)-5-{2-[6-((R)-3-methyl-piperazin-1-yl)-pyridin-3-ylamino]-pyrimidin-4-yl}-nicotinonitrile] |  |  | < 100 | < 30
9 | Cn1cc(NC(=O)[C@H]2CCCN2c2ncc(-c3ccnc(Nc4cnn(C)c4)n3)cc2C#N)cn1 [DMX-41, (R)-1-{3-Cyano-5-[2-(1-methyl-1H-pyrazol-4-ylamino)-pyrimidin-4-yl]-pyridin-2-yl}-pyrrolidine-2-carboxylic acid (1-methyl-1H-pyrazol-4-yl)-amide] |  |  | < 1000 | < 100
10 | N#Cc1cc(-c2ccnc(Nc3ccc(CN4CC[C@H](F)C4)nc3)n2)cnc1N1CC[C@H](F)C1 [DMX-80, 2-((S)-3-Fluoro-pyrrolidin-1-yl)-5-{2-[6-((S)-3-fluoro-pyrrolidin-1-ylmethyl)-pyridin-3-ylamino]-pyrimidin-4-yl}-nicotinonitrile] |  |  | < 15 | < 30
11 | N#Cc1nc(-c2nc(Nc3ccc(N4CCOCC4)cc3)ncc2F)ccc1N1CC[C@H](F)C1 [DMX-153, 6-[5-Fluoro-2-(4-morpholin-4-yl-phenylamino)-pyrimidin-4-yl]-3-((S)-3-fluoro-pyrrolidin-1-yl)-pyridine-2-carbonitrile] |  |  | < 15 | < 15
12 | N#Cc1cc(-c2nc(Nc3ccc(CN4CCOCC4)nc3)ncc2F)cnc1N1CCCOCC1 [DMX-87, 5-[5-Fluoro-2-(6-morpholin-4-ylmethyl-pyridin-3-ylamino)-pyrimidin-4-yl]-2-[1,4]oxazepan-4-yl-nicotinonitrile] |  |  | < 100 | < 100
13 | CC(c1ccc(Nc2nccc(-c3cnc(N4CC[C@H](F)C4)c(C#N)c3)n2)cn1)N1CCOCC1 (stereo partly drawn) [DMX-96, 2-((S)-3-Fluoro-pyrrolidin-1-yl)-5-{2-[6-(1-morpholin-4-yl-ethyl)-pyridin-3-ylamino]-pyrimidin-4-yl}-nicotinonitrile] |  |  | < 30 | < 15
14 | N#Cc1cc(-c2ccnc(Nc3cnn(CCN4CCOCC4)c3)n2)cnc1N1CC[C@H](F)C1 [DMX-53, 2-((S)-3-Fluoro-pyrrolidin-1-yl)-5-{2-[1-(2-morpholin-4-yl-ethyl)-1H-pyrazol-4-ylamino]-pyrimidin-4-yl}-nicotinonitrile] |  |  | < 100 | < 30
15 | COCCNCc1ccc(Nc2nccc(-c3cnc(N4CC[C@H](F)C4)c(C#N)c3)n2)cn1 [DMX-77, 2-((S)-3-Fluoro-pyrrolidin-1-yl)-5-(2-{6-[(2-methoxy-ethylamino)-methyl]-pyridin-3-ylamino}-pyrimidin-4-yl)-nicotinonitrile] |  |  | < 100 | < 100
16 | N#Cc1nc(-c2ccnc(Nc3ccc(NC(=O)CN4CC[C@H](F)C4)nc3)n2)ccc1N1CC[C@H](O)C1 [DMX-146, N-(5-{4-[6-Cyano-5-((S)-3-hydroxy-pyrrolidin-1-yl)-pyridin-2-yl]-pyrimidin-2 ylamino}-pyridin-2-yl)-2-((S)-3-fluoro-pyrrolidin-1-yl)-acetamide] |  |  | < 100 | < 30
17 | CN(C(=O)CN1CCOCC1)c1ccc(Nc2nccc(-c3cnc(N4CC[C@H](F)C4)c(C#N)c3)n2)cn1 [DMX-74, N-(5-{4-[5-Cyano-6-((S)-3-fluoro-pyrrolidin-1-yl)-pyridin-3-yl]-pyrimidin-2-ylamino}-pyridin-2-yl)-N-methyl-2-morpholin-4-yl-acetamide] |  |  | < 100 | < 100
18 | N#Cc1cc(-c2ccnc(Nc3cncc(NC(=O)CN4CCOCC4)c3)n2)cnc1N1CC[C@H](F)C1 [DMX-108, N-(5-{4-[5-Cyano-6-((S)-3-fluoro-pyrrolidin-1-yl)-pyridin-3-yl]-pyrimidin-2-ylamino}-pyridin-3-yl)-2-morpholin-4-yl-acetamide] |  |  | < 100 | < 30

Source: patent US9433622B2, “Pyrimidine compounds useful in the treatment of diseases mediated by IKKE and/or TBK1 mechanisms” (DOMAINEX LIMITED, priority 2013, dated 2016)
